From patent publication US12398141B2 (SHANGHAI SYNERGY PHARMACEUTICAL SCIENCES CO., LTD, priority 2019, dated 2025)

Experiments:
[1] = target: JAK3 (Homo sapiens (Human), UniProt P52333); assay: JAK3 LANCE Ultra kinase assay; format: biochemical; conditions: 4 uM ATP
[2] = tested on: Sprague-Dawley (SD) mice; assay: Concanavalin-induced paw swelling in mice; format: in vivo; conditions: 10 mg/kg intragastric; for Paw swelling rate_1 h (%): 1 h; for Paw swelling rate_2 h (%): 2 h; for Paw swelling rate_4 h (%): 4 h; for Paw swelling rate_6 h (%): 6 h
Method in brief: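 SD […], 6-7 weeks, 160-180 g, dosed intragastrically with compound in 4% Tween 80/0.5% HPMC. 0.5 h later, 0.1 ml 0.03% concanavalin injected subcutaneously into the plantar. Paw volume measured before modeling and at 1, 2, 4 and 6 h; swelling rate expressed as percent change from pre-dose volume.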

[3] = target: JAK1 (Homo sapiens (Human), UniProt P23458); assay: JAK1 LANCE Ultra kinase assay; format: biochemical; conditions: for IC50: 38 uM ATP; for JAK2/JAK1: ratio of IC50 JAK2 to IC50 JAK1
JAK1, sequence (P23458 whole entry): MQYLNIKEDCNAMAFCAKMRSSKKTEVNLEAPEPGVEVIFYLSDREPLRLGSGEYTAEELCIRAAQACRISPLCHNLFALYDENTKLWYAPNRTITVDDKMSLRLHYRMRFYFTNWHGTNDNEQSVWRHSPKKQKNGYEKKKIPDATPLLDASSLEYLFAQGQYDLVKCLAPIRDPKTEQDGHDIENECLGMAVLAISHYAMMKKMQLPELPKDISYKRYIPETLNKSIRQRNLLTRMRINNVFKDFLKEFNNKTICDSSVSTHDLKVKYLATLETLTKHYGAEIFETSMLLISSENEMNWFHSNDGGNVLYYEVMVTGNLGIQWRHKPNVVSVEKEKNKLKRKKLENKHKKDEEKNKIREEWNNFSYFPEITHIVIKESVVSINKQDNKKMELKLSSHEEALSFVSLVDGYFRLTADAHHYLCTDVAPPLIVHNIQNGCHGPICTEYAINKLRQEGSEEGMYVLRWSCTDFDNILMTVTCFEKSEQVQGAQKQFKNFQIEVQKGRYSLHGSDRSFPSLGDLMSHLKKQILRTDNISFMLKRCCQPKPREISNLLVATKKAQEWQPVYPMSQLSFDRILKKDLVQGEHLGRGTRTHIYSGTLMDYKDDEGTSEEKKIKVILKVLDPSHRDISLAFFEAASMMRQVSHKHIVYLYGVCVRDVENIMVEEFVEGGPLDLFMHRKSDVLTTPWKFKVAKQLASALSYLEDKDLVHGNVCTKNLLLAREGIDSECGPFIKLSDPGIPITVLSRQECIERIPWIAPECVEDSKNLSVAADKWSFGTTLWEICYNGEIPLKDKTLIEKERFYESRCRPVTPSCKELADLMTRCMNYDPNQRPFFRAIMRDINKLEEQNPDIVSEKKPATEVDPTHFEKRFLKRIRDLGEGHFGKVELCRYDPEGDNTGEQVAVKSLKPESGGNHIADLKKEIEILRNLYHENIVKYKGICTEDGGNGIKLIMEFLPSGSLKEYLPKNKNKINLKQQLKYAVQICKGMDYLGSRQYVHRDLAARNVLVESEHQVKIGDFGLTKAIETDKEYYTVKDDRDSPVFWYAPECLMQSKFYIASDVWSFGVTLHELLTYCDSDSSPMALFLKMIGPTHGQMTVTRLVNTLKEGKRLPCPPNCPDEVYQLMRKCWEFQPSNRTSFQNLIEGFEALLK
Method in brief: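 JAK1 preincubated with compound 10 min at room temperature, then ULight-JAK-1 peptide/ATP added for 90 min at room temperature; stopped with EDTA, Eu-W1024 anti-phosphotyrosine TR-FRET read after 60 min. Inhibition normalised to DMSO and blank wells; IC50 from curve fit.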

[4] = target: JAK2 (Homo sapiens (Human), UniProt O60674); assay: JAK2 LANCE Ultra kinase assay; format: biochemical; conditions: 12 uM ATP
JAK2, sequence (O60674 whole entry): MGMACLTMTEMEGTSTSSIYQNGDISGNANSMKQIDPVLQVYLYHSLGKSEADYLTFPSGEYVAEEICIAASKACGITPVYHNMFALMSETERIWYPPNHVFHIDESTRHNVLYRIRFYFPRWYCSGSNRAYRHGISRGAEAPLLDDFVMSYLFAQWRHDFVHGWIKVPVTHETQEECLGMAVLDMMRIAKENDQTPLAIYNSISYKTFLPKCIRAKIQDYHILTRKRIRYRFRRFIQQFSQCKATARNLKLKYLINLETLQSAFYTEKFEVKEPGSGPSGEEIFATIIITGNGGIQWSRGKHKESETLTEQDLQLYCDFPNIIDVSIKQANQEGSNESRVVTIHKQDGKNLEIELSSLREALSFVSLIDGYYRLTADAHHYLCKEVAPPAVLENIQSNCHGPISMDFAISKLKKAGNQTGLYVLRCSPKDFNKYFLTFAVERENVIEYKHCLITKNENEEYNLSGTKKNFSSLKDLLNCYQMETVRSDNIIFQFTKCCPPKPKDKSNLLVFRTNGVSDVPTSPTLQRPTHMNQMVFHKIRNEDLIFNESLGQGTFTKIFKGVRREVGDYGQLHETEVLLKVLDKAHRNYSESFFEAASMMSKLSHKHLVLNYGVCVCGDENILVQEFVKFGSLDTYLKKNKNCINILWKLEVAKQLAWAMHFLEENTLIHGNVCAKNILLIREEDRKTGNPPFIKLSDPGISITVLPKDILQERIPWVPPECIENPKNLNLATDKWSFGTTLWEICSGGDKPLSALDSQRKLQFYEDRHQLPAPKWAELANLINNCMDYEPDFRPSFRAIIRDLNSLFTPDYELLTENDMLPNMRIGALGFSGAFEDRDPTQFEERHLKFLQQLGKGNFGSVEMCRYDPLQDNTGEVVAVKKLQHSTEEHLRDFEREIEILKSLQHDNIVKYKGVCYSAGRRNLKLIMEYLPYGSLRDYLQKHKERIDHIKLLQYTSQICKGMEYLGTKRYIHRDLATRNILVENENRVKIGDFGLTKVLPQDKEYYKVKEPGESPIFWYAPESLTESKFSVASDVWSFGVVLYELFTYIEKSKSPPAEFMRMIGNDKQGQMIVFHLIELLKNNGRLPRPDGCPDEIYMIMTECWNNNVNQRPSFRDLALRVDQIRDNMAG

[5] = Collagen-induced rheumatoid arthritis model, clinical score; format: in vivo, mice; set-up: key: 0-4 per limb by redness/deformity, max 16 per animal; conditions: clinical score 0-16 per animal, Day 0 (before modeling)
Procedure: (§1) The effects of compounds H07, H12, H14, H25, H30, H39 and H44 on rheumatoid arthritis in […] were determined after long term administration by using Lewis male […] (Beijing Vital River Laboratory Animal Technology Co., Ltd.), aged 5-6 weeks and weighing […] as test animals. The anti-inflammatory pharmacodynamics characteristic of the compounds of the invention was discussed.
(§2) A certain amount of compounds were taken and dissolved in 4% Tween 80/0.5% hydroxy propyl methyl cellulose solution. A volume of intragastric administration of mice was 10 ml/kg.
(§3) Collagen type II was dissolved in 0.1M acetic acid and kept in a 4° C. refrigerator overnight at a collagen concentration of 4 mg/mL. Same volume of incomplete Freund adjuvant (Sigma, USA) was added in collagen before injection in test, which was emulsified high speed homogenizer (30000 rpm) to prepare a collagen emulsion. This procedure was carried out on ice.
(§4) Mice were immunologically injected with the collagen emulsion by two separate times for modeling on days 1 and 7 (the day before modeling was day 0). 0.1 ml of collagen emulsion prepared as above was injected intradermally into a root of tail at a single point, and 0.2 ml was injected intradermally into back at two points. The animals were subjected to clinical score and paw volume test from day 10 to day 14 after modeling. Animals successfully modeled (average clinical score≥3 points/animal) were assigned to each administration group, with each group included 10 animals. They were administrated intragastrically with above compounds or resolvents at a dosage of 10 mg/kg twice/day, and administrated intragastrically with methotrexate (2 mg/kg, Sigma, USA) every three days, until day 27. During the test, the […] were scored twice a week, and the paw volume and body weight were measured twice.
(§5) According to the different degrees of lesions (redness and joint deformation), the scores were ranged from 0 to 4 points, with the highest score of 4 points for each limb and 16 points for each animal. Scoring standards are as follows: 0, no redness; 1, slight redness on mid legs (tarsals) or ankles; 2, slight redness from ankles to mid legs (tarsals); 3, medium redness from ankles to tarsometatarsal joints; 4, severe redness from toes or fingers to ankles or wrist joints.

[6] = tested on: Lewis male mice; assay: as above; format: in vivo; set-up: key: 0-4 per limb by redness/deformity, max 16 per animal; conditions: clinical score 0-16 per animal, compounds 10 mg/kg twice/day, methotrexate 2 mg/kg every three days
Procedure: as §1, §2, §3, §4, §5

JAK3, sequence (P52333 whole entry): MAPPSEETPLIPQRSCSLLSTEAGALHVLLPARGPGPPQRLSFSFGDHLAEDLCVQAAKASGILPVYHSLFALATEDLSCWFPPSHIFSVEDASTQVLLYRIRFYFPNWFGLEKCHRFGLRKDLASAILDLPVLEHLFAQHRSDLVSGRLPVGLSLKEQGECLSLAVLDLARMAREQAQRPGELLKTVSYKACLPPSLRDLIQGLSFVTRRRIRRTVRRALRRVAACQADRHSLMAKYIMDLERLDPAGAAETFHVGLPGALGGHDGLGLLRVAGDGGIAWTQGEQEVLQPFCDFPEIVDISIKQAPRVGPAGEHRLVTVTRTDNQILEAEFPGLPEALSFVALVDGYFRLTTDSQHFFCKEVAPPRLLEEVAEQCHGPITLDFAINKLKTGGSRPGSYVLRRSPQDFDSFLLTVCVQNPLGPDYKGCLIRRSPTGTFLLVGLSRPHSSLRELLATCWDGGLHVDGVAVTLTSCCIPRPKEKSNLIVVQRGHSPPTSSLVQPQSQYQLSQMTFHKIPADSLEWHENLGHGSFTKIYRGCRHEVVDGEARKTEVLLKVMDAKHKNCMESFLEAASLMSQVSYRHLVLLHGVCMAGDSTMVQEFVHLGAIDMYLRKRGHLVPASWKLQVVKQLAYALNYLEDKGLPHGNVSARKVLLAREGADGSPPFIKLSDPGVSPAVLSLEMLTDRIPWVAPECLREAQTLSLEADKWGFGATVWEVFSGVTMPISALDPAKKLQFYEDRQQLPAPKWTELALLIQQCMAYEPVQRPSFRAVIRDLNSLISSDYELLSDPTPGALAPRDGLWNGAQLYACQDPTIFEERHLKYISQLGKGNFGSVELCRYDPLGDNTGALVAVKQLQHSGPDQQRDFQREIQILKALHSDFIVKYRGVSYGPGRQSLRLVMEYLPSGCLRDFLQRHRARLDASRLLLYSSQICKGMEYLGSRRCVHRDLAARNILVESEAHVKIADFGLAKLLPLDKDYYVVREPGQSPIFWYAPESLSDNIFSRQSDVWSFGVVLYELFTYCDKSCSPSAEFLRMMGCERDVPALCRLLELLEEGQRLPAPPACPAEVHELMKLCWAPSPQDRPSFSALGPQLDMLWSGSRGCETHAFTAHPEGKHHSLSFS

SMILES | IC50 [1] | Paw swelling rate_1 h (%) [2] | Paw swelling rate_2 h (%) [2] | Paw swelling rate_4 h (%) [2] | Paw swelling rate_6 h (%) [2] | IC50 [3] | JAK2/JAK1 [3] | IC50 [4] | Score Day 0 [5] | Score Day 13 [6] | Score Day 14 [6] | Score Day 18 [6] | Score Day 21 [6] | Score Day 25 [6] | Score Day 27 [6]
CCCS(=O)(=O)N[C@H]1C[C@@H](N(C)c2c(C#N)cnc3[nH]ccc23)C1 [Compound H14, (cis)-4-{[3-(propanesulfonamido)-cyclobutyl-1-yl]-methyl-amino}-1H-pyrrolo[2,3-b]pyridin-5-carbonitrile] | 34.2 nM | 32.10 ± 5.20% | 25.90 ± 5.00% | 25.50 ± 4.00% | 25.10 ± 4.20% | 1.78 nM | 5.59 | 9.95 nM | 0.00 ± 0.00 | 3.30 ± 0.32 | 4.10 ± 0.50 | 3.20 ± 0.73 | 3.20 ± 0.61 | 2.20 ± 0.45 | 1.10 ± 0.27
CN(c1c(C#N)cnc2[nH]ccc12)[C@H]1C[C@@H]2CN(C(=O)Nc3ccc(Cl)c(C(F)(F)F)c3)C[C@@H]2C1 [Compound H25, (3aR,5s,6aS)-N-(4-chloro-3-(trifluoromethyl)phenyl)-5-((5-cyano-1H-pyrrolo[2,3-b]pyridin-4-yl)(methyl)amino)hexahydrocyclopentadiene[c]pyrrole-2(1H)-carboxamide] | 58 nM | 32.10 ± 5.20% | 26.90 ± 5.00% | 24.50 ± 4.00% | 24.50 ± 4.00% | 0.56 nM | 11.96 | 6.7 nM | 0.00 ± 0.00 | 2.90 ± 0.48 | 3.40 ± 0.27 | 2.13 ± 0.21 | 1.10 ± 0.10 | 0.93 ± 0.18 | 0.74 ± 0.34
N#Cc1cnc2[nH]ccc2c1N1CC2CN(C(=O)NCC(F)(F)F)CC21 (stereo not drawn) [Compound H39, 6-(5-cyano-1H-pyrrolo[2,3-b]pyridin-4-yl)-N-(2,2,2-trifluoroethyl)-3,6-diazabicyclo[3.2.0]heptane-3-carboxamide] | 150 nM | 31.10 ± 2.30% | 25.60 ± 4.00% | 26.30 ± 3.30% | 25.30 ± 3.30% | 0.35 nM | 60.00 | 21 nM | 0.00 ± 0.00 | 3.10 ± 0.44 | 4.10 ± 0.50 | 3.0 ± 0.37 | 2.33 ± 0.31 | 2.20 ± 0.52 | 1.10 ± 0.27
